Assay results published in ChEMBL document CHEMBL4138123, “Design, synthesis and biological evaluation of novel pyrazolochalcones as potential modulators of PI3K/Akt/mTOR pathway and inducers of apoptosis in breast cancer cells” (Eur J Med Chem, 2017).

Tests used:
Format in all cases: functional
MOLT-4 = assay: Cytotoxicity against human MOLT4 cells assessed as growth inhibition after 48 hrs by sulforhodamine B assay; conditions: MOLT-4, 48 h
NCI-H226 = assay: Cytotoxicity against human NCI-H226 cells assessed as growth inhibition after 48 hrs by sulforhodamine B assay; conditions: NCI-H226, 48 h
SNB-19 [1] = assay: Cytotoxicity against human SNB19 cells assessed as growth inhibition after 48 hrs by sulforhodamine B assay; conditions: SNB-19, 48 h
UACC-257 [2] = assay: Cytotoxicity against human UACC257 cells assessed as growth inhibition after 48 hrs by sulforhodamine B assay; conditions: UACC-257, 48 h
TK-10 [3] = assay: Cytotoxicity against human TK10 cells assessed as growth inhibition after 48 hrs by sulforhodamine B assay; conditions: TK-10, 48 h
MCF7 = assay: Cytotoxicity against human MCF7 cells assessed as growth inhibition after 48 hrs by sulforhodamine B assay; conditions: MCF7, 48 h
CCRF-CEM = assay: Cytotoxicity against human CCRF-CEM cells assessed as cell growth at 0.01 uM after 48 hrs by sulforhodamine B assay relative to control; conditions: read-out: Activity
786-0 = assay: Cytotoxicity against human 786-0 cells assessed as cell growth at 0.01 uM after 48 hrs by sulforhodamine B assay relative to control; conditions: 786-0, 48 h, read-out: Activity
NCI/ADR-RES = assay: Cytotoxicity against human NCI/ADR-RES cells assessed as cell growth at 0.01 uM after 48 hrs by sulforhodamine B assay relative to control; conditions: read-out: Activity
IGROV-1 [4] = assay: Cytotoxicity against human IGROV1 cells assessed as cell growth at 0.01 uM after 48 hrs by sulforhodamine B assay relative to control; conditions: IGROV-1, 48 h, read-out: Activity
U-251 = assay: Cytotoxicity against human U251 cells assessed as cell growth at 0.01 uM after 48 hrs by sulforhodamine B assay relative to control; conditions: U-251, 48 h, read-out: Activity
NCI-H322M [5] = assay: Cytotoxicity against human NCI-H322M cells assessed as cell growth at 0.01 uM after 48 hrs by sulforhodamine B assay relative to control; conditions: read-out: Activity
HOP-62 = assay: Cytotoxicity against human HOP62 cells assessed as cell growth at 0.01 uM after 48 hrs by sulforhodamine B assay relative to control; conditions: HOP-62, 48 h, read-out: Activity
NCI-H522 = assay: Cytotoxicity against human NCI-H522 cells assessed as cell growth at 0.1 uM after 48 hrs by sulforhodamine B assay relative to control; conditions: NCI-H522, 48 h, read-out: Activity
SNB-19 [6] = assay: Cytotoxicity against human SNB19 cells assessed as cell growth at 0.1 uM after 48 hrs by sulforhodamine B assay relative to control; conditions: SNB-19, 48 h, read-out: Activity
IGROV-1 [7] = assay: Cytotoxicity against human IGROV1 cells assessed as cell growth at 0.1 uM after 48 hrs by sulforhodamine B assay relative to control; conditions: IGROV-1, 48 h, read-out: Activity
TK-10 [8] = assay: Cytotoxicity against human TK10 cells assessed as cell growth at 0.1 uM after 48 hrs by sulforhodamine B assay relative to control; conditions: TK-10, 48 h, read-out: Activity
HL-60(TB) [9] = assay: Cytotoxicity against human HL-60(TB) cells assessed as cell growth at 1 uM after 48 hrs by sulforhodamine B assay relative to control; conditions: HL-60, 48 h, read-out: Activity
NCI-H322M [10] = assay: Cytotoxicity against human NCI-H322M cells assessed as cell growth at 1 uM after 48 hrs by sulforhodamine B assay relative to control; conditions: read-out: Activity
HCC 2998 = assay: Cytotoxicity against human HCC2998 cells assessed as cell growth at 1 uM after 48 hrs by sulforhodamine B assay relative to control; conditions: HCC 2998, 48 h, read-out: Activity
SNB-19 [11] = assay: Cytotoxicity against human SNB19 cells assessed as cell growth at 1 uM after 48 hrs by sulforhodamine B assay relative to control; conditions: SNB-19, 48 h, read-out: Activity
T47D = assay: Cytotoxicity against human T47D cells assessed as cell growth at 1 uM after 48 hrs by sulforhodamine B assay relative to control; conditions: read-out: Activity
RPMI-8226 [12] = assay: Cytotoxicity against human RPMI8226 cells assessed as cell growth at 10 uM after 48 hrs by sulforhodamine B assay relative to control; conditions: RPMI-8226, 48 h, read-out: Activity
NCI-H23 = assay: Cytotoxicity against human NCI-H23 cells assessed as cell growth at 10 uM after 48 hrs by sulforhodamine B assay relative to control; conditions: NCI-H23, 48 h, read-out: Activity
UACC-257 [13] = assay: Cytotoxicity against human UACC257 cells assessed as cell growth at 10 uM after 48 hrs by sulforhodamine B assay relative to control; conditions: UACC-257, 48 h, read-out: Activity
ACHN = assay: Cytotoxicity against human ACHN cells assessed as cell growth at 10 uM after 48 hrs by sulforhodamine B assay relative to control; conditions: read-out: Activity
PC-3 = assay: Cytotoxicity against human PC3 cells assessed as cell growth at 10 uM after 48 hrs by sulforhodamine B assay relative to control; conditions: PC-3, 48 h, read-out: Activity
MDA-MB-468 = assay: Cytotoxicity against human MDA-MB-468 cells assessed as cell growth at 10 uM after 48 hrs by sulforhodamine B assay relative to control; conditions: MDA-MB-468, 48 h, read-out: Activity
HL-60(TB) [14] = assay: Cytotoxicity against human HL-60(TB) cells assessed as cell growth at 100 uM after 48 hrs by sulforhodamine B assay relative to control; conditions: HL-60, 48 h, read-out: Activity
RPMI-8226 [15] = assay: Cytotoxicity against human RPMI8226 cells assessed as cell growth at 100 uM after 48 hrs by sulforhodamine B assay relative to control; conditions: RPMI-8226, 48 h, read-out: Activity
HCT-15 = assay: Cytotoxicity against human HCT15 cells assessed as cell growth at 100 uM after 48 hrs by sulforhodamine B assay relative to control; conditions: HCT-15, 48 h, read-out: Activity
SF-268 = assay: Cytotoxicity against human SF268 cells assessed as cell growth at 100 uM after 48 hrs by sulforhodamine B assay relative to control; conditions: SF-268, 48 h, read-out: Activity
M14 = assay: Cytotoxicity against human M14 cells assessed as cell growth at 100 uM after 48 hrs by sulforhodamine B assay relative to control; conditions: M14, 48 h, read-out: Activity
MDA-MB-435 = assay: Cytotoxicity against human MDA-MB-435 cells assessed as cell growth at 100 uM after 48 hrs by sulforhodamine B assay relative to control; conditions: MDA-MB-435, 48 h, read-out: Activity
SN12C = assay: Cytotoxicity against human SN12C cells assessed as cell growth at 100 uM after 48 hrs by sulforhodamine B assay relative to control; conditions: read-out: Activity
[16] = read-out: LC50 (the source's name)

In the case of COc1ccc(-c2cc(/C=C/C(=O)c3ccc4c(c3)OCO4)[nH]n2)cc1OC, the GI50 (MOLT-4) is reported as 2.2 µM, the GI50 (NCI-H226) is reported as 1.66 µM and the GI50 (SNB-19 [1]) is reported as 1.67 µM. It also gave a GI50 (UACC-257 [2]) of 2.16 µM, a GI50 (TK-10 [3]) of 1.5 µM and a GI50 (MCF7) of 0.93 µM.
For COc1ccc(C(=O)/C=C/c2cc(-c3ccc(OC)c(OC)c3)n[nH]2)cc1OC, the GI50 (MOLT-4) was 2.2 µM, the TGI (MOLT-4) was over 100 µM and the CC50 (MOLT-4; [16]) was over 100 µM. It also gave a GI50 (NCI-H226) of 1.66 µM, a TGI (NCI-H226) of 4.23 µM and a GI50 (SNB-19 [1]) of 1.67 µM. For the same compound, the TGI (SNB-19 [1]) was 4.16 µM, the CC50 (SNB-19 [1]; [16]) was over 100 µM and the GI50 (UACC-257 [2]) was 2.16 µM. For the same compound, the TGI (UACC-257 [2]) was 5.02 µM, the GI50 (TK-10 [3]) was 4.96 µM and the TGI (TK-10 [3]) was 47.7 µM. For the same compound, the GI50 (MCF7) was 0.937 µM, the TGI (MCF7) was 8.02 µM and the growth at 0.01 µM (CCRF-CEM) was 99%. The growth at 0.01 µM (786-0) was 92%, the growth at 0.01 µM (NCI/ADR-RES) was 104% and the growth at 0.01 µM (IGROV-1 [4]) was 104%. For the same compound, the growth at 0.01 µM (U-251) was 95%, the growth at 0.01 µM (NCI-H322M [5]) was 104% and the growth at 0.01 µM (HOP-62) was 83%. For the same compound, the growth at 0.1 µM (NCI-H522) was 94%, the growth at 0.1 µM (SNB-19 [6]) was 91% and the growth at 0.1 µM (IGROV-1 [7]) was 104%. For the same compound, the growth at 0.1 µM (TK-10 [8]) was 96%, the growth at 1 µM (HL-60(TB) [9]) was 86% and the growth at 1 µM (NCI-H322M [10]) was 94%. It also gave a growth at 1 µM (HCC 2998) of 95%, a growth at 1 µM (SNB-19 [11]) of 78% and a growth at 1 µM (T47D) of 60%. The growth at 10 µM (RPMI-8226 [12]) was -30%, the growth at 10 µM (NCI-H23) was -30% and the growth at 10 µM (UACC-257 [13]) was -41%. It also gave a growth at 10 µM (ACHN) of -54%, a growth at 10 µM (PC-3) of 5% and a growth at 10 µM (MDA-MB-468) of -80%. It also gave a growth at 100 µM (HL-60(TB) [14]) of 1%, a growth at 100 µM (RPMI-8226 [15]) of -38% and a growth at 100 µM (HCT-15) of -10%. The growth at 100 µM (SF-268) was -25%, the growth at 100 µM (M14) was -51% and the growth at 100 µM (MDA-MB-435) was 2%. The growth at 100 µM (SN12C) was -37%.
